Patent US20240279241A1, “PYRIDO[4,3-D]PYRIMIDINE COMPOUNDS CAPABLE OF INHIBITING KRAS MUTANT PROTEINS” (Redx Pharma PLC, priority 2021, published 2024)
Where two headings read alike, the source gives them in different places.

Experiments:
Format in all cases: biochemical
[1] = target: T1, KRAS G12D (Homo sapiens, UniProt P01116, G12D); assay: HTRF nucleotide exchange assay (NEA), KRAS G12D; conditions: recombinant human KRAS G12D aa1-188, 2 nM; lowest class = % inhibition at 10 μM
T1 construct: Recombinant human RAS protein (2 nM)
Procedure: (§1) The capacity of compounds to bind KRAS G12D, other KRAS mutants and wildtype RAS isoforms was quantified using a HTRF nucleotide exchange assay. Recombinant human RAS protein (2 nM; aa1-188 KRAS WT, HRAS WT, NRAS WT, or KRAS containing the containing the G12D, G13D or Q61H amino acid substitutions, or 4 nM KRAS; aa1-188 containing the G12V, G12C, G12A or G12S amino acid substitution, an N-terminal 6×His-tag and leader sequence), and 2 nM Europium-labeled anti-6×His antibody were mixed in assay buffer (10 mM HEPES pH7.3, 150 mM NaCl, 5 mM MgCl2, 0.05% BSA, 0.0025% NP-40 and 100 mM KF) with various concentrations of compound in a 384-well plate and a volume of 5 uL. After a 60-minute incubation at room temperature, 5 ul of 200 nM EDA-GTP-DY647P1 (diluted in assay buffer) was added to the plate. Following 30-minute incubation at room temperature, time-resolved fluorescence was measured on a PerkinElmer Envision plate reader. DMSO (0.3%) and unlabeled […] (1 μM) or equivalent tool compound were used to generate the Max and Min assay signals, respectively. Data was analysed using a four-parameter logistic model to calculate IC50 values, with at least two independent replicates were performed for each compound.

[2] = target: T2, KRAS G12C (Homo sapiens, UniProt P01116, G12C); assay: HTRF nucleotide exchange assay (NEA), KRAS G12C
T2 construct: 4 nM KRAS; aa1-188 containing the G12V, G12C, G12A or G12S amino acid substitution
Procedure: as §1

[3] = target: T3, KRAS WT (Homo sapiens, UniProt P01116); assay: HTRF nucleotide exchange assay (NEA), KRAS WT
T3 construct: Recombinant human RAS protein (2 nM); aa1-188 KRAS WT
Procedure: as §1

[4] = target: T4, KRAS G12V (Homo sapiens, UniProt P01116, G12V); assay: HTRF nucleotide exchange assay (NEA), KRAS G12V
T4 construct: 4 nM KRAS; aa1-188 containing the G12V, G12C, G12A or G12S amino acid substitution
Procedure: as §1

[5] = recombinant human KRAS WT aa1-188, 2 nM, lowest class = % inhibition at 10 μM

T4 sequence (P01116 1-188 isoform P01116-2 G12V): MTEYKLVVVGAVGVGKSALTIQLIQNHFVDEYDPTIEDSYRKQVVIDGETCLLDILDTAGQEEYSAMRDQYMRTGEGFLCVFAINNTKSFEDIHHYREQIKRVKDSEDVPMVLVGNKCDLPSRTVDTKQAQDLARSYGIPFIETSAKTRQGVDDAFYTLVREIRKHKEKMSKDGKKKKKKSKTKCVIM
T2 sequence (P01116 1-188 isoform P01116-2 G12C): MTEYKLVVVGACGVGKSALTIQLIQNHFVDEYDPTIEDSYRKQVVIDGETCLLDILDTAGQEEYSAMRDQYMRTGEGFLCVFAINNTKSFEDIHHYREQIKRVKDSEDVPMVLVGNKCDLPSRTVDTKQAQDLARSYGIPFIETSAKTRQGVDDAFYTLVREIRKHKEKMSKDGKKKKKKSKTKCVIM
T1 sequence (P01116 1-188 isoform P01116-2 G12D): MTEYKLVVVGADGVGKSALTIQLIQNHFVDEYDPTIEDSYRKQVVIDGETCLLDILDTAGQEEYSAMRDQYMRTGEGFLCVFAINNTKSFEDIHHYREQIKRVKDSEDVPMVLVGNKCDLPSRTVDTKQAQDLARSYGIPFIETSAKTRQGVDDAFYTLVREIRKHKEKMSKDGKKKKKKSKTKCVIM
T3 sequence (P01116 1-188 isoform P01116-2): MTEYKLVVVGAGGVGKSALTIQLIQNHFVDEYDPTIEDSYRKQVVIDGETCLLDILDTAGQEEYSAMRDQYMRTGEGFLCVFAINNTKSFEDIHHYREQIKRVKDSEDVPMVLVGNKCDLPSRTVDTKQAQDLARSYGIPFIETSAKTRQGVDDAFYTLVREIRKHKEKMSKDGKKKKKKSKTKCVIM

| SMILES | IC50 [1] [µM] | IC50 [2] [µM] | IC50 [3] [µM] | IC50 [4] [µM] | IC50 [3, 5] [µM] |
| --- | --- | --- | --- | --- | --- |
| COC(=O)CCNc1nc(OCC23CCCN2CCC3)nc2c(F)c(-c3cc(O)cc4ccccc34)ncc12 [Example 25] | 0.1 to 10 | 0.1 to 10 | 0.1 to 10 | – | – |
| CSCCCNc1nc(OCC23CCCN2CCC3)nc2c(F)c(-c3cc(O)cc4ccccc34)ncc12 [Example 26, 4-[8-fluoro-2-(1,2,3,5,6,7-hexahydropyrrolizin-8-ylmethoxy)-4-(3-methylsulfanylpropylamino)pyrido[4,3-d]pyrimidin-7-yl]naphthalen-2-ol] | 0.1 to 10 | 0.1 to 10 | 0.1 to 10 | – | – |
| COCCCN(C)c1nc(OCC23CCCN2CCC3)nc2c(F)c(-c3cc(O)cc4ccccc34)ncc12 [Example 28, 4-[8-fluoro-2-(1,2,3,5,6,7-hexahydropyrrolizin-8-ylmethoxy)-4-[3-methoxypropyl(methyl)amino]pyrido[4,3-d]pyrimidin-7-yl]naphthalen-2-ol] | 0.1 to 10 | 0.1 to 10 | 0.1 to 10 | – | – |
| Oc1cc(-c2ncc3c(N4CCC5COCC5C4)nc(OCC45CCCN4CCC5)nc3c2F)c2ccccc2c1 (stereo not shown) [Example 51, 4-[4-(3,3a,4,6,7,7a-hexahydro-1H-furo[3,4-c]pyridin-5-yl)-8-fluoro-2-(1,2,3,5,6,7-hexahydropyrrolizin-8-ylmethoxy)pyrido [4,3-d]pyrimidin-7-yl]naphthalen-2-ol] | 0.1 to 10 | 0.1 to 10 | 0.1 to 10 | 0.1 to 10 | – |
| CC1(C#N)CCN(c2nc(OCC34CCCN3CCC4)nc3c(F)c(-c4cc(O)cc5ccccc45)ncc23)CC1 [Example 63, 1-[8-fluoro-2-(1,2,3,5,6,7-hexahydropyrrolizin-8-ylmethoxy)-7-(3-hydroxy-1-naphthyl)pyrido[4,3-d]pyrimidin-4-yl]-4-methyl-piperidine-4-carbonitrile] | 0.1 to 10 | – | 0.1 to 10 | – | – |
| CC(=O)OCCCNc1nc(OCC23CCCN2CCC3)nc2c(F)c(-c3cc(O)cc4ccccc34)ncc12 [Example 64, 3-[[8-fluoro-2-(1,2,3,5,6,7-hexahydropyrrolizin-8-ylmethoxy)-7-(3-hydroxy-1-naphthyl)pyrido[4,3-d]pyrimidin-4-yl]amino]propyl acetate] | 0.1 to 10 | – | 0.1 to 10 | – | – |
| Oc1cc(-c2ncc3c(N4CC5CC4CC5O)nc(OCC45CCCN4CCC5)nc3c2F)c2ccccc2c1 (stereo not shown) [Example 66, 2-[8-fluoro-2-(1,2,3,5,6,7-hexahydropyrrolizin-8-ylmethoxy)-7-(3-hydroxy-1-naphthyl)pyrido[4,3-d]pyrimidin-4-yl]-2-azabicyclo[2.2.1] heptan-5-ol] | 0.1 to 10 | – | 0.1 to 10 | – | – |
| NS(=O)(=O)CCCNc1nc(OCC23CCCN2CCC3)nc2c(F)c(-c3cc(O)cc4ccccc34)ncc12 [Example 67] | 0.1 to 10 | – | 0.1 to 10 | – | – |
| CC1CN(c2nc(OCC34CCCN3CCC4)nc3c(F)c(-c4cc(O)cc5ccccc45)ncc23)CCC1O (stereo not shown) [Example 68, 1-[8-fluoro-2-(1,2,3,5,6,7-hexahydropyrrolizin-8-ylmethoxy)-7-(3-hydroxy-1-naphthyl)pyrido[4,3-d]pyrimidin-4-yl]-3-methyl-piperidin-4-ol] | 0.1 to 10 | – | 0.1 to 10 | – | – |
| Oc1cc(-c2ncc3c(N4CC5CC(C4)C5O)nc(OCC45CCCN4CCC5)nc3c2F)c2ccccc2c1 (stereo not shown) [Example 71, 3-[8-fluoro-2-(1,2,3,5,6,7-hexahydropyrrolizin-8-ylmethoxy)-7-(3-hydroxy-1-naphthyl)pyrido[4,3-d]pyrimidin-4-yl]-3-azabicyclo[3.1.1] heptan-6-ol] | 0.1 to 10 | – | 0.1 to 10 | – | – |
| Oc1cc(-c2ncc3c(N4CCC5CCC(C4)O5)nc(OCC45CCCN4CCC5)nc3c2F)c2ccccc2c1 (stereo not shown) [Example 80, 4-[8-fluoro-2-(1,2,3,5,6,7-hexahydropyrrolizin-8-ylmethoxy)-4-(9-oxa-3-azabicyclo[4.2.1]nonan-3-yl)pyrido [4,3-d]pyrimidin-7-yl]naphthalen-2-ol] | 0.1 to 10 | – | 0.1 to 10 | – | – |
| Fc1c(-c2cccc3[nH]ncc23)ncc2c(N3CCCOCC3)nc(OCC34CCCN3CCC4)nc12 [Example 92, 4-[8-fluoro-2-(1,2,3,5,6,7-hexahydropyrrolizin-8-ylmethoxy)-7-(1H-indazol-4-yl)pyrido[4,3-d]pyrimidin-4-yl]-1,4-oxazepane] | 0.1 to 10 | – | – | – | > 10 |
| Nc1nc2c(-c3ncc4c(N5CCCOCC5)nc(OCC56CCCN5CCC6)nc4c3F)cccc2s1 [Example 93, 4-[8-fluoro-2-(1,2,3,5,6,7-hexahydropyrrolizin-8-ylmethoxy)-4-(1,4-oxazepan-4-yl)pyrido[4,3-d]pyrimidin-7-yl]-1,3-benzothiazol-2-amine] | 0.1 to 10 | – | 0.1 to 10 | – | – |
| Fc1c(-c2cccc3[nH]ncc23)ncc2c(N3CCCOCC3)nc(OC[C@@]34CCCN3C[C@H](F)C4)nc12 [Example 95, 4-[8-fluoro-7-(1H-indazol-4-yl)-2-[[trans-2-fluoro-1,2,3,5,6,7-hexahydropyrrolizin-8-yl]methoxy]pyrido[4,3-d]pyrimidin-4-yl]-1,4-oxazepane] | 0.1 to 10 | – | – | – | > 10 |

Continued, values first:

| IC50 [1] [µM] | IC50 [2] [µM] | IC50 [3] [µM] | IC50 [4] [µM] | IC50 [3, 5] [µM] | SMILES |
| --- | --- | --- | --- | --- | --- |
| ≤ 0.01 | ≤ 0.01 | ≤ 0.01 | ≤ 0.01 | – | C#Cc1c(F)ccc2cc(O)cc(-c3ncc4c(N5CCC(O)CC5)nc(OC[C@@]56CCCN5C[C@H](F)C6)nc4c3F)c12 (relative stereo) [Example 86, 1-[7-(8-ethynyl-7-fluoro-3-hydroxy-1-naphthyl)-8-fluoro-2-[[trans-2-fluoro-1,2,3,5,6,7-hexahydropyrrolizin-8-yl]methoxy]pyrido[4,3-d]pyrimidin-4-yl]piperidin-4-ol] |
| 0.1 to 10 | 0.1 to 10 | 0.1 to 10 | – | – | Oc1cc(-c2ncc3c(N4CCC5(CCNC5)CC4)nc(OCC45CCCN4CCC5)nc3c2F)c2ccccc2c1 [Example 2, 4-[4-(2,8-diazaspiro[4.5]decan-8-yl)-8-fluoro-2-(1,2,3,5,6,7-hexahydropyrrolizin-8-ylmethoxy)pyrido[4,3-d]pyrimidin-7-yl]naphthalen-2-ol] |
| 0.1 to 10 | 0.1 to 10 | 0.1 to 10 | 0.1 to 10 | – | Oc1cc(-c2ncc3c(N4CCOCC4)nc(OCC45CCCN4CCC5)nc3c2F)c2ccccc2c1 [Example 5, 4-[8-fluoro-2-(1,2,3,5,6,7-hexahydropyrrolizin-8-ylmethoxy)-4-(morpholin-4-yl)pyrido[4,3-d]pyrimidin-7-yl]naphthalen-2-ol] |
| 0.1 to 10 | 0.1 to 10 | 0.1 to 10 | 0.1 to 10 | – | CC1CN(c2nc(OCC34CCCN3CCC4)nc3c(F)c(-c4cc(O)cc5ccccc45)ncc23)CCO1 (stereo not shown) [Example 6, 4-[8-fluoro-2-(1,2,3,5,6,7-hexahydropyrrolizin-8-ylmethoxy)-4-(2-methylmorpholin-4-yl)pyrido[4,3-d]pyrimidin-7-yl]naphthalen-2-ol] |
| 0.1 to 10 | 0.1 to 10 | 0.1 to 10 | 0.1 to 10 | – | Oc1cc(-c2ncc3c(N4CC5CCC(C4)O5)nc(OCC45CCCN4CCC5)nc3c2F)c2ccccc2c1 [Example 7, 4-[8-fluoro-2-(1,2,3,5,6,7-hexahydropyrrolizin-8-ylmethoxy)-4-(8-oxa-3-azabicyclo[3.2.1]octan-3-yl)pyrido[4,3-d]pyrimidin-7-yl]naphthalen-2-ol] |
| 0.01 to 0.1 | 0.1 to 10 | 0.1 to 10 | 0.1 to 10 | – | COCCCNc1nc(OCC23CCCN2CCC3)nc2c(F)c(-c3cc(O)cc4ccccc34)ncc12 [Example 11, 4-[8-fluoro-2-(1,2,3,5,6,7-hexahydropyrrolizin-8-ylmethoxy)-4-(3-methoxypropylamino)pyrido[4,3-d]pyrimidin-7-yl]naphthalen-2-ol] |
| 0.01 to 0.1 | 0.01 to 0.1 | 0.01 to 0.1 | – | – | CC1COCCCN1c1nc(OCC23CCCN2CCC3)nc2c(F)c(-c3cc(O)cc4ccccc34)ncc12 (stereo not shown) [Example 18, 4-[8-fluoro-2-(1,2,3,5,6,7-hexahydropyrrolizin-8-ylmethoxy)-4-(3-methyl-1,4-oxazepan-4-yl)pyrido[4,3-d]pyrimidin-7-yl]naphthalen-2-ol] |
| 0.1 to 10 | 0.01 to 0.1 | 0.1 to 10 | – | – | O=S1(=O)CCCN(c2nc(OCC34CCCN3CCC4)nc3c(F)c(-c4cc(O)cc5ccccc45)ncc23)CC1 [Example 24, 4-[4-(1,1-dioxo-1,4-thiazepan-4-yl)-8-fluoro-2-(1,2,3,5,6,7-hexahydropyrrolizin-8-ylmethoxy)pyrido [4,3-d]pyrimidin-7-yl]naphthalen-2-ol] |
| 0.01 to 0.1 | – | 0.1 to 10 | – | – | CC1CC(O)CCN1c1nc(OCC23CCCN2CCC3)nc2c(F)c(-c3cc(O)cc4ccccc34)ncc12 (stereo not shown) [Example 69, 1-[8-fluoro-2-(1,2,3,5,6,7-hexahydropyrrolizin-8-ylmethoxy)-7-(3-hydroxy-1-naphthyl)pyrido[4,3-d]pyrimidin-4-yl]-2-methyl-piperidin-4-ol] |
